Data from PMC5976239 (Journal of medicinal chemistry, 2017).
Converted amounts (≈) assume the structure as drawn.

Assays:
[1] = system: C. albicans ATCC MYA-1237(R) (F); assay: MIC determination by in vitro antifungal assay; format: cell-based; details: Candida albicans, 48 h, read-out: MIC (MIC-0)
[2] = system: Candida albicans ATCC 10231 (A); assay: MIC determination by in vitro antifungal assay; format: cell-based; details: ATCC10231, 48 h, read-out: MIC (MIC-0)
[3] = system: C. albicans ATCC MYA-2876(S) (C); assay: MIC determination by in vitro antifungal assay; format: cell-based; details: Candida albicans, 48 h, read-out: MIC (MIC-0)
[4] = system: Aspergillus nidulans ATCC 38163 (L); assay: MIC determination against filamentous fungi; format: cell-based; details: ATCC38163, 48 h, read-out: MIC (MIC-0)
[5] = system: C. albicans ATCC 90819(R) (D); assay: MIC determination by in vitro antifungal assay; format: cell-based; details: Candida albicans, ATCC90819, 48 h, read-out: MIC (MIC-0)
[6] = system: C. albicans ATCC MYA-2310(S) (E); assay: MIC determination by in vitro antifungal assay; format: cell-based; details: Candida albicans, 48 h, read-out: MIC (MIC-0)
[7] = system: Aspergillus terreus ATCC MYA-3633 (M); assay: MIC determination against filamentous fungi; format: cell-based; details: 48 h, read-out: MIC (MIC-0)
[8] = system: C. albicans ATCC MYA-1003(R) (G); assay: MIC determination by in vitro antifungal assay; format: cell-based; details: Candida albicans, 48 h, read-out: MIC (MIC-0)
[9] = system: C. albicans ATCC 64124(R) (B); assay: MIC determination by in vitro antifungal assay; format: cell-based; details: Candida albicans, ATCC64124, 48 h, read-out: MIC (MIC-0)
[10] = system: Aspergillus flavus ATCC MYA-3631 (K); assay: MIC determination against filamentous fungi; format: cell-based; details: 48 h, read-out: MIC (MIC-0)
[11] = system: C. albicans, non-albicans Candida, and Aspergillus strains; assay: Antifungal activity over the panel of 13 fungal strains; format: cell-based; details: for MIC: read-out: antifungal activity class based on MIC values; for antifungal activity class based on MIC values: against all fungal strains tested (5 and 6 except strain K); for antifungal activity (in words): overall, fungal strains tested (27 except strains K and L)
[12] = Hemolytic activity assay; format: cell-based; details: mouse, murine red blood cells (mRBCs)
[13] = system: Candida albicans ATCC 10231 (A); assay: MIC determination in the presence and absence of FBS; format: cell-based; details: strains A, J, and L; +10% FBS versus no FBS
[14] = system: C. albicans ATCC 64124 (strain B) biofilms; assay: Biofilm assay

Row | MIC [1] [µg/mL] | MIC [2] [µg/mL] | MIC [3] [µg/mL] | MIC [4] [µg/mL] | MIC [5] [µg/mL] | MIC [6] [µg/mL] | MIC [7] [µg/mL] | MIC [8] [µg/mL] | MIC [9] [µg/mL] | MIC [10] [µg/mL] | MIC [11] [µg/mL] | antifungal activity class based on MIC values [11] | increase in MIC in biofilms (SMIC50 and SMIC80 versus MIC in liquid cultures) [14] | Structure (SMILES) | antifungal activity (in words) [11] | hemolysis at 60 min, 62.5 µg/mL [12] [%] | hemolysis at 60 min, 7.8 µg/mL [12] [%] | antifungal activity in the presence of FBS (in words) [13]
1 | 0.24 (≈ 0.22 µM) | 0.975 (≈ 0.892 µM) | 0.06 (≈ 0.0549 µM) | > 31.3 | 0.12 (≈ 0.11 µM) | 0.12 (≈ 0.11 µM) | > 31.3 | 0.48 (≈ 0.439 µM) | 0.24 (≈ 0.22 µM) | > 31.3 | – | – | – | CC[C@H](C)C[C@H](C)CCCCCCCCC(=O)N[C@H]1C[C@@H](O)[C@@H](NCCN)NC(=O)[C@@H]2[C@@H](O)CCN2C(=O)[C@H]([C@H](O)CCN)NC(=O)[C@H]([C@H](O)[C@@H](O)c2ccc(O)cc2)NC(=O)[C@@H]2C[C@@H](O)CN2C(=O)[C@H]([C@@H](C)O)NC1=O [CAS, caspofungin, reference compound] | – | – | – | –
2 | > 31.3 | > 31.3 | > 31.3 | > 31.3 | > 31.3 | > 31.3 | > 31.3 | > 31.3 | > 31.3 | > 31.3 | ≥ 31.3 | – | – | CCCCCN1CCNCC1 [Compound 2, N-pentylpiperazine] | – | – | – | –
3 | 1.95 (≈ 7.26 µM) | 0.975 (≈ 3.63 µM) | 1.95 (≈ 7.26 µM) | 0.975 (≈ 3.63 µM) | 0.975 (≈ 3.63 µM) | 1.95 (≈ 7.26 µM) | 1.95 (≈ 7.26 µM) | 1.95 (≈ 7.26 µM) | 0.975 (≈ 3.63 µM) | 1.95 (≈ 7.26 µM) | 0.015 to 1.95 (≈ 0.0559 to 7.26 µM) | – | – | CCCCCCCCCCCCCN1CCNCC1 [Compound 8, 1-Tridecyl Piperazine] | – | – | – | –
4 | 31.3 (≈ 92.8 µM) | 7.8 (≈ 23.1 µM) | 7.8 (≈ 23.1 µM) | 0.975 (≈ 2.89 µM) | 31.3 (≈ 92.8 µM) | 7.8 (≈ 23.1 µM) | 31.3 (≈ 92.8 µM) | 31.3 (≈ 92.8 µM) | 31.3 (≈ 92.8 µM) | 31.3 (≈ 92.8 µM) | – | – | – | CN1CCN(CC(O)(Cn2cncn2)c2ccc(F)cc2F)CC1 (stereo not shown) [Compound 16] | – | < 10 | – | –
5 | > 31.3 | > 31.3 | > 31.3 | > 31.3 | 31.3 (≈ 79.5 µM) | > 31.3 | > 31.3 | > 31.3 | > 31.3 | > 31.3 | – | – | – | CCCCCN1CCN(CC(O)(Cn2cncn2)c2ccc(F)cc2F)CC1 (stereo not shown) [Compound 17, 2-(2,4-Difluorophenyl)-1-(1H-1,2,4-triazol-1-yl)-3-(4-pentylpiperazine)propan-2-ol] | basically inactive | – | – | –
6 | – | 1.95 (≈ 3.86 µM) | 1.95 (≈ 3.86 µM) | 0.975 (≈ 1.93 µM) | 1.95 (≈ 3.86 µM) | – | 0.975 (≈ 1.93 µM) | – | 7.8 (≈ 15.4 µM) | 0.975 (≈ 1.93 µM) | – | – | – | CCCCCCCCCCCCCN1CCN(CC(O)(Cn2cncn2)c2ccc(F)cc2F)CC1 (stereo not shown) [Compound 23, 2-(2,4-Difluorophenyl)-1-(1H-1,2,4-triazol-1-yl)-3-(4-tridecylpiperazine)propan-2-ol] | – | – | – | –
7 | > 31.3 | > 31.3 | > 31.3 | 1.95 (≈ 6.01 µM) | 3.9 to 31.3 (≈ 12 to 96.5 µM) | 7.8 to 31.3 (≈ 24 to 96.5 µM) | 15.6 (≈ 48.1 µM) | 31.3 (≈ 96.5 µM) | > 31.3 | – | – | – | – | OC(CN1CCOCC1)(Cn1cncn1)c1ccc(F)cc1F (stereo not shown) [Compound 27, 2-(2,4-Difluorophenyl)-1-(1H-1,2,4-triazol-1-yl)-3-(mopholine)-propan-2-ol] | inactive | – | – | –

The next lines start with the compound.

Row | Structure (SMILES) | MIC [1] [µg/mL] | MIC [2] [µg/mL] | MIC [3] [µg/mL] | MIC [4] [µg/mL] | MIC [5] [µg/mL] | MIC [6] [µg/mL] | MIC [7] [µg/mL] | MIC [8] [µg/mL] | MIC [9] [µg/mL] | MIC [10] [µg/mL] | MIC [11] [µg/mL] | antifungal activity class based on MIC values [11] | increase in MIC in biofilms (SMIC50 and SMIC80 versus MIC in liquid cultures) [14] | antifungal activity (in words) [11] | hemolysis at 60 min, 62.5 µg/mL [12] [%] | hemolysis at 60 min, 7.8 µg/mL [12] [%] | antifungal activity in the presence of FBS (in words) [13]
8 | CN1CCNCC1 [Compound 1, N-methylpiperazine] | > 31.3 | > 31.3 | > 31.3 | > 31.3 | > 31.3 | > 31.3 | > 31.3 | > 31.3 | > 31.3 | > 31.3 | ≥ 31.3 | – | – | – | – | – | –
9 | CCCCCCCCN1CCNCC1 [Compound 3, 1-Octyl Piperazine] | > 31.3 | > 31.3 | > 31.3 | > 31.3 | > 31.3 | > 31.3 | > 31.3 | > 31.3 | > 31.3 | > 31.3 | – | – | – | – | – | – | –
10 | CCCCCCCCCN1CCNCC1 [Compound 4, 1-Nonyl Piperazine] | 31.3 (≈ 147 µM) | 31.3 (≈ 147 µM) | > 31.3 | > 31.3 | 31.3 (≈ 147 µM) | 31.3 (≈ 147 µM) | > 31.3 | > 31.3 | > 31.3 | 31.3 (≈ 147 µM) | ≥ 31.3 | – | – | – | – | – | –
11 | CCCCCCCCCCN1CCNCC1 [Compound 5, 1-Decyl Piperazine] | 15.6 (≈ 68.9 µM) | 15.6 (≈ 68.9 µM) | 15.6 (≈ 68.9 µM) | 15.6 (≈ 68.9 µM) | 15.6 (≈ 68.9 µM) | 15.6 (≈ 68.9 µM) | 15.6 (≈ 68.9 µM) | 15.6 (≈ 68.9 µM) | 15.6 (≈ 68.9 µM) | 31.3 (≈ 138 µM) | – | moderately active | – | – | – | – | –
12 | CCCCCCCCCCCN1CCNCC1 [Compound 6, 1-Undecyl Piperazine] | 7.8 (≈ 32.4 µM) | 7.8 (≈ 32.4 µM) | 15.6 (≈ 64.9 µM) | 15.6 (≈ 64.9 µM) | 7.8 (≈ 32.4 µM) | 7.8 (≈ 32.4 µM) | 15.6 (≈ 64.9 µM) | 15.6 (≈ 64.9 µM) | 7.8 (≈ 32.4 µM) | 31.3 (≈ 130 µM) | – | moderately active | – | – | – | – | –
13 | CCCCCCCCCCCCCCN1CCOCC1 [Compound 10, 4-Tetradecyl Morpholine] | > 31.3 | > 31.3 | > 31.3 | > 31.3 | > 31.3 | > 31.3 | > 31.3 | > 31.3 | > 31.3 | > 31.3 | ≥ 31.3 | – | – | – | – | – | –
14 | Fc1ccc(C2(Cn3cncn3)CO2)c(F)c1 (stereo not shown) [Compound 14, 1-[[2-(2,4-Difluorophenyl)-2-oxiranyl]methyl]-1H-1,2,4-triazole] | > 31.3 | > 31.3 | > 31.3 | > 31.3 | > 31.3 | > 31.3 | > 31.3 | > 31.3 | > 31.3 | > 31.3 | – | – | – | inactivity | – | – | –
15 | CCCCCCCCCN1CCN(CC(O)(Cn2cncn2)c2ccc(F)cc2F)CC1 (stereo not shown) [Compound 19, 2-(2,4-Difluorophenyl)-1-(1H-1,2,4-triazol-1-yl)-3-(4-nonylpiperazine)propan-2-ol] | 15.6 (≈ 34.7 µM) | 0.975 (≈ 2.17 µM) | 3.9 (≈ 8.67 µM) | 0.975 (≈ 2.17 µM) | 7.8 (≈ 17.3 µM) | 15.6 (≈ 34.7 µM) | 1.95 (≈ 4.34 µM) | 15.6 (≈ 34.7 µM) | 7.8 (≈ 17.3 µM) | 0.48 (≈ 1.07 µM) | – | – | – | – | – | – | –
16 | CCCCCCCCCCCN1CCN(CC(O)(Cn2cncn2)c2ccc(F)cc2F)CC1 (stereo not shown) [Compound 21, 2-(2,4-Difluorophenyl)-1-(1H-1,2,4-triazol-1-yl)-3-(4-undecylpiperazine)propan-2-ol] | 15.6 (≈ 32.7 µM) | 1.95 (≈ 4.08 µM) | 7.8 (≈ 16.3 µM) | 1.95 (≈ 4.08 µM) | 15.6 (≈ 32.7 µM) | 15.6 (≈ 32.7 µM) | 1.95 (≈ 4.08 µM) | 15.6 (≈ 32.7 µM) | 15.6 (≈ 32.7 µM) | 1.95 (≈ 4.08 µM) | – | – | – | – | – | – | –
17 | CCCCCCCCCCCCCCN1CCN(CC(O)(Cn2cncn2)c2ccc(F)cc2F)CC1 (stereo not shown) [Compound 24, 2-(2,4-Difluorophenyl)-1-(1H-1,2,4-triazol-1-yl)-3-(4-tetradecylpiperazine)propan-2-ol] | 3.9 (≈ 7.5 µM) | 1.95 (≈ 3.75 µM) | 7.8 (≈ 15 µM) | 1.95 (≈ 3.75 µM) | 1.95 (≈ 3.75 µM) | 3.9 (≈ 7.5 µM) | 0.975 (≈ 1.88 µM) | 1.95 (≈ 3.75 µM) | 31.3 (≈ 60.2 µM) | 0.48 (≈ 0.924 µM) | – | – | – | – | – | > 50 | –
18 | CCCCCCCCCCN1CCN(CC(O)(Cn2cncn2)c2ccc(Cl)cc2Cl)CC1 (stereo not shown) [Compound 25, 2-(2,4-Dichlorophenyl)-1-(1H-1,2,4-triazol-1-yl)-3-(4-decylpiperazine)propan-2-ol] | 7.8 (≈ 15.7 µM) | – | 7.8 (≈ 15.7 µM) | – | – | 7.8 (≈ 15.7 µM) | – | 7.8 (≈ 15.7 µM) | – | – | – | – | 1–2 fold | – | – | 22 | retained their full antifungal activity
19 | OC(CNCCN1CCOCC1)(Cn1cncn1)c1ccc(F)cc1F (stereo not shown) [Compound 28, 2-(2,4-Difluorophenyl)-1-(1H-1,2,4-triazol-1-yl)-3-(4-(2-aminoethyl)morpholine)propan-2-ol] | 31.3 (≈ 85.2 µM) | 31.3 (≈ 85.2 µM) | 31.3 (≈ 85.2 µM) | > 31.3 | > 31.3 | > 31.3 | > 31.3 | > 31.3 | 31.3 (≈ 85.2 µM) | > 31.3 | – | – | – | inactive | – | – | –
